Source: patent publication US20050003383A1, “Linoleate isomerase” (Arkion Life Sciences LLC d/b/a Bio-Technical Resources …, priority 1999, published 2005)
Where two headings read alike, the source gives them in different places.

What was measured:
[1] = test system: linoleate isomerase from Clostridium sporogenes; experiment: C. sporogenes linoleate isomerase kinetic assay, absorbence at 234 nm, partially purified enzyme; format: biochemical; details: for Activity / Activity (%): cofactor 50 μM, DTT 1 mM; for Activity (%): no cofactor = 100; for effect on isomerase activity: fatty acids and derivatives fixed at 35 μM; for Vmax / Km: compound as substrate; for Km: read-out: Km; for substrate has an inhibitory effect at concentrations above: substrate concentration dependency of isomerization
Experimental: In this experiment, all kinetic experiments were performed in a quartz cuvette (1-cm light-path with a magnetic stirrer) at room temperature using a HP 8452A diode array spectrophotometer. The cuvette was filled with 1 ml of incubation buffer containing 50 μg protein, 0.1 M potassium phosphate, pH7.5, 10 mM NaCl and 10% 1,2-propane diol. The isomerization was initiated by adding a small aliquot (1-2 μl) of freshly diluted substrate-stock (˜[…] linoleic acid) in 1,2-propane diol at 50 seconds. The increase in absorbence at 234 nm was monitored and recorded. […] The amount of product formed was calculated based on a molar extinction coefficient of 24,000.

[2] = target: P. acnes ATCC 6919 linoleate isomerase (Cutibacterium acnes, UniProt Q6A8X5); format: biochemical, Propionibacterium acnes; details: for inhibition of isomerase activity: EDTA 5 mM, 1,10-phenanthroline 1 mM, p-chloromercuribenzoate 5 μM, N-ethylmaleimide 100 μM
Experimental: Formation of CLA was determined by measuring the absorbence at 234 nm. […] Generally, the isomerase was assayed using an endpoint assay after 30 to 60 minutes incubation at room temperature. FIG. 18 (time course assay at different linoleic acid levels) and FIG. 19 (end point assay at different linoleic acid levels) show the effect of increasing substrate concentration on formation of […].

[3] = Linoleate isomerase characterization (Table 7B), enzymes compared on linoleic acid; format: biochemical
Experimental: Table 7B is a summary of the kinetic data and characterization of linoleate isomerases from P. acnes (crude extract prior to DEAE purification as in Example 11, except that the Vmax was determined using enzyme purified through the chromatofocusing step as in Example 11), L. reuteri (enzyme purified through the gel filtration step as in Example 3), and C. sporogenes (enzyme purified through the gel filtration step as in Example 17), all isolated by the present inventors, and the B. fibrisolvens A-38 linoleate isomerase (crude extract; Kepler and Tove, 1967, J. Biochem. 242:5686-5692). The substrate in these experiments was linoleic acid.

[4] = isomerization of (cis, cis, cis, cis)-6, 9, 12, 15 octadecatetraenoic acid 20 PPM
[5] = isomerization of linoleic acid 10 PPM
[6] = compound as substrate at 10 PPM, activity with linoleic acid set as 100%
[7] = compound added at 35 μM, substrate LA 35 μM, pH 7.5, LA alone = 100%

O[C@H](CS)[C@H](O)CS (racemic) [DTT, dithiothreitol]
Activity [1, 4]: 5.9 nmol/min
Activity (%) [1, 4]: 95%
Activity [1, 5]: 12.8 ± 3.8 nmol/min
Activity (%) [1, 5]: 121%

CCCCCCCC[C@H]1O[C@H]1CCCCCCCC(=O)O (relative stereo) [epoxystearic acid, (cis)-9:10-epoxyoctadecanoic]
RELATIVE ACTIVITY % [1, 6]: 0%

CCCCC/C=C\C/C=C\CCCCCCCCCC(=O)OC [(cis, cis)-11, 14 eicosadienoic acid methyl ester]
RELATIVE ACTIVITY % [1, 6]: 0%

CCCCC/C=C\C/C=C\CCCCCCCCCC(=O)O [(cis, cis)-11, 14 eicosadienoic acid]
RELATIVE ACTIVITY % [1, 7]: 0%
RELATIVE ACTIVITY % [1, 6]: 20%

CCCCC/C=C\C/C=C\CCCCCCCCCCCC(=O)O [(cis, cis)-13, 16 docosadienoic acid]
RELATIVE ACTIVITY % [1, 6]: 0%

CCCCC/C=C\C/C=C\C/C=C\CCCCCCC(=O)O [(cis, cis, cis)-8, 11, 14 eicosatrienoic acid]
RELATIVE ACTIVITY % [1, 6]: 0%

Nc1ncnc2c1ncn2[C@@H]1O[C@H](COP(=O)(O)OP(=O)(O)O)[C@@H](O)[C@H]1O [ADP]
Activity [1, 4]: 5.7 nmol/min
Activity (%) [1, 4]: 92%
Activity [1, 5]: 11.1 ± 1.7 nmol/min
Activity (%) [1, 5]: 105%
effect of possible cofactors on isomerase activity ([2]; 60 minute assays): No significant effect

Nc1ncnc2c1ncn2[C@@H]1O[C@H](COP(=O)(O)OP(=O)(O)OP(=O)(O)O)[C@@H](O)[C@H]1O [ATP]
Activity [1, 4]: 6.1 nmol/min
Activity (%) [1, 4]: 98%
Activity [1, 5]: 11.1 ± 1.4 nmol/min
Activity (%) [1, 5]: 105%
effect of possible cofactors on isomerase activity ([2]; 60 minute assays): No significant effect

[Ca] [Calcium]
effect of possible cofactors on isomerase activity ([2]; 60 minute assays): no effect

CC(C)(COP(=O)(O)OP(=O)(O)OC[C@H]1O[C@@H](n2cnc3c(N)ncnc32)[C@H](O)[C@@H]1OP(=O)(O)O)[C@@H](O)C(=O)NCCC(=O)NCCS [CoA]
Activity [1, 4]: 6.5 nmol/min
Activity (%) [1, 4]: 105%

Cc1cc2nc3c(=O)[nH]c(=O)nc-3n(C[C@H](O)[C@H](O)[C@H](O)COP(=O)(O)OP(=O)(O)OC[C@H]3O[C@@H](n4cnc5c(N)ncnc54)[C@H](O)[C@@H]3O)c2cc1C [FAD]
effect of possible cofactors on isomerase activity ([2]; 60 minute assays): No significant effect

Cc1cc2nc3c(=O)[nH]c(=O)nc-3n(C[C@H](O)[C@H](O)[C@H](O)COP(=O)(O)O)c2cc1C [FMN]
effect of possible cofactors on isomerase activity ([2]; 60 minute assays): No significant effect

CCN1C(=O)C=CC1=O [N-ethylmaleimide]
inhibition of isomerase activity [2]: not inhibited

NC(=O)C1=CN([C@@H]2O[C@H](COP(=O)(O)OP(=O)(O)OC[C@H]3O[C@@H](n4cnc5c(N)ncnc54)[C@H](O)[C@@H]3O)[C@@H](O)[C@H]2O)C=CC1 [NADH]
Activity [1, 4]: 6.4 nmol/min
Activity (%) [1, 4]: 103%
Activity (%) [1, 5]: 99%
effect of possible cofactors on isomerase activity ([2]; 60 minute assays): No significant effect

NC(=O)C1=CN([C@@H]2O[C@H](COP(=O)(O)OP(=O)(O)OC[C@H]3O[C@@H](n4cnc5c(N)ncnc54)[C@H](OP(=O)(O)O)[C@@H]3O)[C@@H](O)[C@H]2O)C=CC1 [NADPH]
Activity [1, 4]: 6.3 nmol/min
Activity (%) [1, 4]: 102%
Activity [1, 5]: 11.1 ± 1.5 nmol/min
Activity (%) [1, 5]: 105%
effect of possible cofactors on isomerase activity ([2]; 60 minute assays): No significant effect

NC(=O)c1ccc[n+]([C@@H]2O[C@H](COP(=O)([O-])OP(=O)(O)OC[C@H]3O[C@@H](n4cnc5c(N)ncnc54)[C@H](OP(=O)(O)O)[C@@H]3O)[C@@H](O)[C@H]2O)c1 [NADP]
effect of possible cofactors on isomerase activity ([2]; 60 minute assays): No significant effect

NC(=O)c1ccc[n+]([C@@H]2O[C@H](COP(=O)([O-])OP(=O)(O)OC[C@H]3O[C@@H](n4cnc5c(N)ncnc54)[C@H](O)[C@@H]3O)[C@@H](O)[C@H]2O)c1 [NAD]
Activity [1, 4]: 5.6 nmol/min
Activity (%) [1, 4]: 90%
Activity [1, 5]: 10.8 ± 1.3 nmol/min
Activity (%) [1, 5]: 102%
effect of possible cofactors on isomerase activity ([2]; 60 minute assays): No significant effect

CCCCCCCC/C=C\CCCCCCCCCCCC(=O)O [erucic acid, (cis)-13-docosaenoic acid]
RELATIVE ACTIVITY % [1, 6]: 0%

N[C@@H](CCC(=O)N[C@@H](CS)C(=O)NCC(=O)O)C(=O)O [glutathione]
effect of possible cofactors on isomerase activity [2]: No significant effect

CCCCC/C=C/C/C=C/CCCCCCCC(=O)O [linolelaidic acid, (trans, trans)-9, 12-octadecadienoic acid]
RELATIVE ACTIVITY % [1, 7]: 19%
RELATIVE ACTIVITY % [1, 6]: 0%

CCCCC/C=C\C/C=C\CCCCCCCCO [linoleyl alcohol, (cis, cis)-9, 12-octadecadien-1-ol]
serves as substrate [1]: do not serve as substrates
RELATIVE ACTIVITY % [1, 7]: 81%
RELATIVE ACTIVITY % [1, 6]: 0%
effect on isomerase activity [1]: inhibitors

[Mg] [magnesium]
effect of possible cofactors on isomerase activity ([2]; 60 minute assays): no effect

CCCCC/C=C\C/C=C\CCCCCCCC(=O)OC [methyl linoleate, (cis, cis)-linoleic acid methyl ester]
serves as substrate [1]: do not serve as substrates
RELATIVE ACTIVITY % [1, 7]: 69%
RELATIVE ACTIVITY % [1, 6]: 0%
effect on isomerase activity [1]: inhibitors

O=C(O)c1cc[c]([Hg][Cl])cc1 [p-chloromercuribenzoate]
inhibition of isomerase activity [2]: not inhibited

CCCCCCCCCCCCCCCC(=O)O [palmitic acid, hexadecanoic acid]
RELATIVE ACTIVITY % [1, 7]: 93%

CCCCCC/C=C\CCCCCCCC(=O)O [palmitoleic acid, (cis)-9 hexadecenoic acid]
RELATIVE ACTIVITY % [1, 7]: 27%
RELATIVE ACTIVITY % [1, 6]: 0%
Ki ([1]; inhibition of linoleic acid isomerization, calculated from secondary plots, read-out: inhibition constants (Ki)): 33.1 µM

CCCCCCCCCCCCCCCCCC(=O)O [stearic acid, octadecanoic acid]
RELATIVE ACTIVITY % [1, 7]: 107%

CC/C=C\C/C=C\C/C=C\C/C=C\CCCCC(=O)O [stearidonic acid, (cis, cis, cis, cis)-6, 9, 12, 15 octadecatetraenoic acid]
Vmax [1]: 204 nmole/min/mg protein
RELATIVE ACTIVITY % [1, 6]: 60%
Km [1]: 18.9 µM
substrate has an inhibitory effect at concentrations above [1]: > 120 µM

CCCCC/C=C\C/C=C\C/C=C\CCCCC(=O)O [γ-linolenic acid, (cis, cis, cis)-6,9, 12-octadecatrienoic acid]
Vmax [1]: 236 nmole/min/mg protein
RELATIVE ACTIVITY % [1, 6]: 77%
Km [1]: 23.8 µM
substrate has an inhibitory effect at concentrations above [1]: > 15 µM

B1: P. acnes: (trans, cis)-10,12-linoleate isomerase from Propionibacterium acnes ATCC 6919, SEQ ID NO:61 (protein)
chain: MSISKDSRIAIIGAGPAGLAAGMYLEQAGFHDYTILERTDHVGGKCHSPNYHGRRYEMGAIMGVPSYDTIQEIMDRTGDKVDGPKLRREFLHEDGEIYVPEKDPVRGPQVMAAVQKLGQLLATKYQGYDANGHYNKVHEDLMLPFDEFLALNGCEAARDLWINPFTAFGYGHFDNVPAAYVLKYLDFVTMMSFAKGDLWTWADGTQAMFEHLNATLEHPAERNVDITRITREDGKVHIHTTDWDRESDVLVLTVPLEKFLDYSDADDDEREYFSKIIHQQYMVDACLVKEYPTISGYVPDNMRPERLGHVMVYYHRWADDPHQIITTYLLRNHPDYADKTQEECRQMVLDDMETFGHPVEKIIEEQTWYYFPHVSSEDYKAGWYEKVEGMQGRRNTFYAGEIMSFGNFDEVCHYSKDLVTRFFV
modifications: Propionibacterium acnes
Enzyme Solubility [3]: S
CLA Isomer ([3]; CLA isomer produced from linoleic acid): 10,12
Optimal pH ([3]; substrate linoleic acid): 7.3
Km ([3]; substrate linoleic acid, crude extract): 17.2 µM
Vmax ([3]; substrate linoleic acid, purified enzyme): 478^5 nmol/min/mg
